Experimental data from ChEMBL document CHEMBL5506010, “Butyrylcholinesterase-Activated Near-Infrared Fluorogenic Probe for In Vivo Theranostics of Alzheimer's Disease” (J Med Chem, 2024).
Active and inactive are the calls of the source. The calls are words filed in the database; no cut-off is given here.

Assays:
Mus musculus [1] = test: Antialzheimer activity in APP/PS1 transgenic AD mouse model assessed as increase in alteration performance administered intravenously once every 2 days for 10 times and measured on day 26 by Y maze test; format: functional, organism-based; conditions: route iv, time 26.0 day
[2] = Drug uptake in brain of 6 weeks old AD-mouse model assessed as increase in fluorescence at 100 uM, iv by fluorescence scanning analysis; format: ADME, organism-based; conditions: in vivo
PC-12 [3] = test: Binding affinity to BChE in rat PC-12 cells assessed as increase in fluorescence intensity preincubated with S11-1014 for 24 hrs followed by compound addition and measured after 1 hrs by fluorescence based confocal laser scanning microscopic analysis; format: cell-based
HT-22 [4] = test: Inhibition of H2O2-induced ROS release in mouse HT-22 cells assessed as decrease in green fluorescence at 1 to 10 uM preincubated for 1 hrs followed by H2O2 addition and measured after 24 hrs by DCFH-DA based confocal laser scanning microscopic analysis; format: functional, cell-based; conditions: dose 1-10 µM, time 25.0 hrs
[5] = Stability of compound in male ICR mouse brain at 100 uM, iv measured at 5 to 60 mins by fluorescence microplate reader; format: ADME, organism-based; conditions: time 5-60 min
[6] = target: Cholinesterase (Mus musculus) (UniProt Q03311); test: Binding affinity to BChE in mouse HT-22 cells assessed as increase in fluorescence at 10 uM incubated for 1 hrs in presence of DCF by laser confocal imaging analysis; format: cell-based
[7] = Drug uptake in HEK293T cells transfected with BChE siRNA assessed as increase in fluorescence intensity by fluorescence based confocal laser scanning microscopic analysis; format: ADME, cell-based; conditions: human, hek-293t
Mus musculus [8] = test: Antialzheimer activity in APP/PS1 transgenic AD mouse model assessed as improvement in recognition index for novel objects administered intravenously once every 2 days for 10 times and measured on day 28 by Novel object recognition test; format: functional, organism-based; conditions: route iv, time 28.0 day
[9] = Toxicity in APP/PS1 transgenic AD mouse model assessed as liver damage administered intravenously once every 2 days for 10 times and measured on day 30 by H and E staining based analysis; format: tissue-based; conditions: in vivo, iv, 720 h, time 30 day
[10] = Drug uptake in wildtype mouse brain assessed as increase in fluorescence at 100 uM, iv preadministered with tacrine for 4 hrs followed by compound administration by fluorescence scanning analysis; format: ADME, organism-based; conditions: in vivo
[11] = Toxicity in APP/PS1 transgenic AD mouse model assessed as kidney damage administered intravenously once every 2 days for 10 times and measured on day 30 by H and E staining based analysis; format: tissue-based; conditions: in vivo, iv, 720 h, time 30 day
Mus musculus [12] = test: Antialzheimer activity in APP/PS1 transgenic AD mouse model assessed as decrease in amyloid beta (1 to 42) level administered intravenously once every 2 days for 10 times and measured on day 30 by ELISA; format: functional, organism-based; conditions: route iv, time 30.0 day
[13] = Toxicity in APP/PS1 transgenic AD mouse model assessed as lung damage administered intravenously once every 2 days for 10 times and measured on day 30 by H and E staining based analysis; format: tissue-based; conditions: in vivo, iv, 720 h, time 30 day
Mus musculus [14] = test: Antialzheimer activity in APP/PS1 transgenic AD mouse model assessed as improvement in NC scores administered intravenously once every 2 days for 10 times and measured on day 27 by Nest construction test; format: functional, organism-based; conditions: route iv, time 27.0 day
Cholinesterase [15] = target: T1, Cholinesterase (Homo sapiens, UniProt P06276); test: Binding affinity to BChE (unknown origin) assessed as enzyme mediated compound hydrolysis measured after 5 min by HPLC analysis relative to control; design: scale not given: the % may be the effect or the level left
[16] = Stability of compound at pH 12 measured within 3 mins by microplate reader analysis; format: physicochemical; conditions: buffer, pH 12, 0.05 h
[17] = Drug accumulation in brain of APP/PS1 transgenic AD-mouse model at 100 uM, iv measured after 24 hrs […] by fluorescence imaging analysis; format: ADME, organism-based; conditions: in vivo
Acetylcholinesterase = Acetylcholinesterase (Homo sapiens, UniProt P22303); test: Inhibition of human AChE using acetylthiocholine iodide as substrate at 10 uM preincubated for 5 mins followed by substrate addition and measured immediately by Ellmans method relative to control
Cholinesterase [18] = target: T1, Cholinesterase; test: Binding affinity to BChE (unknown origin) in PBS assessed as cyan coloured appearance of compound by UV/vis absorption analysis
HT-22 [19] = test: Inhibition of H2O2-induced ROS release in mouse HT-22 cells assessed as increase in red fluorescence at 1 to 10 uM preincubated for 1 hrs followed by H2O2 addition and measured after 24 hrs by DCFH-DA based confocal laser scanning microscopic analysis; format: functional, cell-based; conditions: dose 1-10 µM, time 25.0 hrs
[20] = Toxicity in APP/PS1 transgenic AD mouse model assessed as effect on body weight administered intravenously once every 2 days for 10 times and measured on day 30; conditions: in vivo, iv, 720 h, time 30 day
SH-SY5Y = test: Neuroprotective activity against amyloid-beta (1 to 42)-induced cell death in human SH-SY5Y cells assessed as increase in cell survival preincubated with compound for 2 hrs followed by amyloid beta (1 to 42) addition and measured after 24 hrs by MTT assay; format: functional, cell-based; conditions: dose 10-50 µM, time 26.0 hrs
[21] = Drug accumulation in brain of APP/PS1 transgenic AD-mouse model at 100 uM, iv measured at 5 to 60 mins by fluorescence imaging analysis; format: ADME, organism-based; conditions: in vivo, time 5-60 min
PC-12 [22] = test: Binding affinity to BChE in rat PC-12 cells assessed as increase in fluorescence intensity incubated for 1 hrs by fluorescence based confocal laser scanning microscopic analysis; format: cell-based; conditions: dose 1-10 µM

T1 sequence (P06276 whole entry): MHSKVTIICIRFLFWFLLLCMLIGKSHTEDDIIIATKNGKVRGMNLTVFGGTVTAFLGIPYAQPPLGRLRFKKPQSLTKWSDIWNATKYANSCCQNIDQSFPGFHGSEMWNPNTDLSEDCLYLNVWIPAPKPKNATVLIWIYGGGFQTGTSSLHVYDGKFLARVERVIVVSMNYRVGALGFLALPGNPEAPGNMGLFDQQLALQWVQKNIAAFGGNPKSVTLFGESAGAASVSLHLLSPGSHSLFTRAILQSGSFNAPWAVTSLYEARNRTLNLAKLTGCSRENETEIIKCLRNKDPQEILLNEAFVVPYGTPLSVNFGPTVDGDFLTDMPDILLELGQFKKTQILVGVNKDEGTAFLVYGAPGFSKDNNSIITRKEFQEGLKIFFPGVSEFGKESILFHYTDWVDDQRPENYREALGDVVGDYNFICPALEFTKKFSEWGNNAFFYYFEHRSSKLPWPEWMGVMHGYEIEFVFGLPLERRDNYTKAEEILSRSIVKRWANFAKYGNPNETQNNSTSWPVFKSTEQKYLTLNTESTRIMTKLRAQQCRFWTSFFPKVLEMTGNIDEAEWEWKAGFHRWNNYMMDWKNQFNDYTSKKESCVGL
Sequence of Acetylcholinesterase (P22303 whole entry): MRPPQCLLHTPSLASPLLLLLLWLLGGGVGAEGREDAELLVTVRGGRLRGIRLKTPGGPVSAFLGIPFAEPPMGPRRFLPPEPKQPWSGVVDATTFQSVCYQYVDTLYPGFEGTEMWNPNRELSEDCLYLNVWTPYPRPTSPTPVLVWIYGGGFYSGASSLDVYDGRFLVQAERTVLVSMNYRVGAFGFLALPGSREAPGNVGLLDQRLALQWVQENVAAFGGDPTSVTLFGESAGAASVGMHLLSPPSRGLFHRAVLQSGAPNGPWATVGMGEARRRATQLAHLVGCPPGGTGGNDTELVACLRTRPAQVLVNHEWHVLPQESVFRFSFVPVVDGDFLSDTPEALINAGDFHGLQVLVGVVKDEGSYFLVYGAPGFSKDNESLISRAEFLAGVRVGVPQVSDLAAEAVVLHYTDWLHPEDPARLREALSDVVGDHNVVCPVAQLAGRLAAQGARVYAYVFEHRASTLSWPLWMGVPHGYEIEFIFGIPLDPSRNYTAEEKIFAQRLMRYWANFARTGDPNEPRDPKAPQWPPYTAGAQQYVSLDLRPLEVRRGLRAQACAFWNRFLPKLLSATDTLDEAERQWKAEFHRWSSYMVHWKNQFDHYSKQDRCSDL
Sequence of Cholinesterase (Mus musculus) (Q03311 whole entry): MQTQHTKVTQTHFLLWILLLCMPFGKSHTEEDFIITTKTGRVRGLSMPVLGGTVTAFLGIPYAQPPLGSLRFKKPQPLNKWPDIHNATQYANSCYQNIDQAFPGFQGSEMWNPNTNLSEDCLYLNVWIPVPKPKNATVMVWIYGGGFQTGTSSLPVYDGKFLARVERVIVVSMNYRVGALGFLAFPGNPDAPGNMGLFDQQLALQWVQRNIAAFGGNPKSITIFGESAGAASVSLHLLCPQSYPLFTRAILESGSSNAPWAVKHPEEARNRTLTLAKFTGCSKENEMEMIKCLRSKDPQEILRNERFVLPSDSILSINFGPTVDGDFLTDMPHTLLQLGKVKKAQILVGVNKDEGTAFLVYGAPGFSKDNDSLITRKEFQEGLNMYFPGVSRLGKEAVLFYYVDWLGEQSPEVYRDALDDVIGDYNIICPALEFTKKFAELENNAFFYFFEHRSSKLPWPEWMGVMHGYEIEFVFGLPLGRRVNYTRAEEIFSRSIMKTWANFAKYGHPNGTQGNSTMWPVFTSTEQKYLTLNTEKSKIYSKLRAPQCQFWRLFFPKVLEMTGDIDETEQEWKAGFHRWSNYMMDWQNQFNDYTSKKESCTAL

CCN(CC)Cc1ccccc1CNC(=O)c1cccc(NC(=O)c2cccc(C(=O)NCCn3cc(CCC[N+]4=C(/C=C/C5=C6Oc7cc(OC(=O)C8CC8)ccc7C=C6CCC5)C(C)(C)c5ccccc54)nn3)c2)c1.[I-]
Activity (Mus musculus [1]): Active
Drug uptake [2]: Active
Activity (PC-12 [3]): inactive
inhibition (HT-22 [4]): Active
Stability [5]: Stable
Activity [6]: inactive
Drug uptake [7]: Not Active
Activity (Mus musculus [8]): Active
Activity [9]: Non-Toxic
Drug uptake [10]: Not Active
Activity [11]: Non-Toxic
Activity (Mus musculus [12]): Active
Activity [13]: Non-Toxic
Activity (Mus musculus [14]): Active
Activity (Cholinesterase [15]): > 90%
Stability [16]: Unstable
Drug uptake [17]: Not Active
inhibition (Acetylcholinesterase): 12.3%
Activity (Cholinesterase [18]): Active
inhibition (HT-22 [19]): Active
Activity [20]: Non-Toxic
Activity (SH-SY5Y): Dose-Dependent Effect
Drug uptake [21]: Active
Activity (PC-12 [22]): Dose-Dependent Effect
